We go through one molecule from patent US7135470B2, “Thienopyridazines as IKK inhibitors” (Roche Palo Alto LLC, priority 2004, dated 2006).

The target in this test is T1, purified recombinant human IKKb (Homo sapiens, UniProt O14920).
T1 sequence (O14920 1-756): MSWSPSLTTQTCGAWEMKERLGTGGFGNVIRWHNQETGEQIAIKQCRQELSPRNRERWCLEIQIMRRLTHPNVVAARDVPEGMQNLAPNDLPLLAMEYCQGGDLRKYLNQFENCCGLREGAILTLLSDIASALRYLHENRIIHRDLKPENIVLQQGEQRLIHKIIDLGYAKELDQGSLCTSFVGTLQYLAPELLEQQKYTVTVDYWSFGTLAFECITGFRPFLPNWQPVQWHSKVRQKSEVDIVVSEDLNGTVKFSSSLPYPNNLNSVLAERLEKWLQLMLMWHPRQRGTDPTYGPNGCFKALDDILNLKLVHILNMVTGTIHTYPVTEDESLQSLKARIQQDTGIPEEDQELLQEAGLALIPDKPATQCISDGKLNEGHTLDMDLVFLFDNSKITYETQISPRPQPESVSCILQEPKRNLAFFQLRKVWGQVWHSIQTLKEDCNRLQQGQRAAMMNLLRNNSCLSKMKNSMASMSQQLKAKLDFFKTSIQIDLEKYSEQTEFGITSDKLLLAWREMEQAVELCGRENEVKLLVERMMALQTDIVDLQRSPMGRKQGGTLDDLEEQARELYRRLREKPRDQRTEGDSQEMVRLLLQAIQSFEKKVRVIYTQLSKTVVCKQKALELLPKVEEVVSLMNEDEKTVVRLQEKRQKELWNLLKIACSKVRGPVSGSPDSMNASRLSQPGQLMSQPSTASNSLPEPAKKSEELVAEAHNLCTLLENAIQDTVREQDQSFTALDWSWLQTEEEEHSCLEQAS
Kind of test: IKKb kinase assay, incorporation of radiolabeled 33P gATP into Biotin-peptide substrate derived from IkB-alpha. Type of test: biochemical. The following applies: recombinant human IKKb 25 nM, ATP 10 μM, peptide substrate 30 μM, 30 minutes at 30° C. On the procedure:
This example describes an assay that is useful in evaluating and selecting a compound that modulates IKK. The assay measures the incorporation of radiolabeled ^33P gATP into the Biotin-peptide kinase substrate, derived from the IkB-alpha sequence.
In a 40 ul volume, 26 ul of ADB diluted, purified recombinant human IKKb [25 nM] was mixed with 4 ul 10× concentration of test compounds, [usually 100 uM–0.003 uM], [10%] DMSO and incubated for 10 minutes at room temperature. The kinase reaction was initiated by the addition of 10 ul 4× substrate cocktail containing the peptide substrate [0 or 30 μM] ATP [10 μM], and ^33PgATP [2uCi/rxn]. After 30 minutes of incubation at 30° C., the reaction was terminated by the transfer of 25 ul reaction sample to a phosphocellulose membrane/plate containing 150 ul 0.75% phosphoric acid.
On the following day, the free radionucleotides in the phosphocellulose membrane were washed under vacuum with 3×200 ul of 0.75% phosphoric acid. After the last wash membrane/plates were transferred to an adoptor plate and 70 ul of scintillation cocktail was added to each well. After four hours, the amount of radioactivity for each well was counted in a top counter.

For the molecule `NC(=O)c1nnc(N)c2cc(-c3ccc(F)cc3)sc12` [Compound 3, 4-Amino-2-(4-fluoro-phenyl)-thieno[2,3-d]pyridazine-7-carboxylic acid amide], the IC50 (usually the midpoint of a concentration-inhibition curve) was less than 1000 nM.
